Measured values: patent publication US9861616B2, “Methods for treating respiratory diseases and formulations therefor” (priority 2013, dated 2018)

Legend:
[1] = Tissue levels in repeat-dose toxicology studies; assay type: in vivo, rodents and non human primates; details: repeated dosing
S. pneumoniae = assay: PK-PD analysis in neutropenic murine-lung infection model; assay type: in vivo; details: neutropenic mice
Experimental: Using a murine-lung infection model, epithelial lining fluid (ELF) and plasma PK-PD measures most closely associated with CEM-101 efficacy against S. pneumoniae and targets based on PK-PD relationships for such indices were identified.
(§1) CEM-101 PK data were obtained from healthy mice administered single CEM-101 doses ranging from 0.625 to 40 mg/kg. Plasma and ELF were collected over 24 h (3 mice/time point) and assayed for CEM-101. Urea in plasma and ELF was used to correct ELF concentrations. Neutropenic mice infected with 10^8 CFU of 1 of 5 S. pneumoniae isolates via inhalation were administered daily CEM-101 doses (0.156 to 160 mg/kg) via oral gavage. Dose-fractionation was performed for 1 isolate; CEM-101 was administered to the other 4 isolates as a Q6h or Q12h regimen. PK and PK-PD were evaluated using S-ADAPT 1.56.

[2] = Rodent ADME studies using radiolabeled CEM-101; assay type: in vivo; details: IV 20 mg/kg
Experimental: This relationship was confirmed in rodent ADME studies using radiolabeled CEM-101. […] After IV dosing at 20 mg/kg, the data was more variable and lung/plasma ratios of 17.6 for males and 6.2 for females were observed.

Tissue distribution [3] = assay type: in vivo, monkey
[4] = Plasma and ELF pharmacokinetics in healthy mice; assay type: in vivo
Experimental: as §1
(§2) A 3-compartment model with a parallel first-order and capacity-limited clearance and a capacity-limited first pass effect with fitted lag-times best described the plasma and ELF data (r2=0.98 and 0.83 for observed vs fitted concentrations, respectively). ELF to total- and free-drug (f) plasma (based on protein binding of 91.8% in mice) AUC0-24 ratios were 0.22 and 2.7, respectively. ELF and f plasma AUC0-24:MIC ratios were most predictive of efficacy (r2=0.85 for ELF and f plasma). […] AUC0-24:MIC ratio was the PK-PD index most predictive of efficacy for CEM-101. PK-PD targets based on these relationships will inform dose selection for future clinical studies.

Tissue distribution [5] = assay type: in vivo; details: rat
Experimental: CEM-101 is well absorbed and distributed to the tissue. In the rat at 250 mg/kg/d, mean lung and liver concentrations 5 of CEM-101 were 17 and 15-fold higher than in plasma.

[6] = system: B. cepacia strains from cystic fibrosis patients; assay: Macrobroth dilution MICs, CF strains; assay type: cell-based; details: 2 B. cepacia strains from cystic fibrosis patients
Experimental: (§3) Two strains each of mucoid P. aeruginosa (both pyocyanin positive) and […] MRSA (only one strain with gold colonies) isolated from patients at a CF clinic were tested. Additionally, 2 B. cepacia strains were acquired, from Hershey Medical Center. All strains were identified by standard methods. Only one strain per patient was tested. MLVA was done on all strains to examine clonality, and confirmed that examination is not taking place on only one or a few clones. Strains will be stored in skim milk at −70° C. until use.
(§4) Original MICs of each strain to CEM-101 and other comparators were tested by CLSI microdilution methodology. Trays were obtained from Trek, Inc., Cleveland, Ohio. Time-kill macrobroth MIC dilution by CLSI was performed for all synergy testing.

[7] = system: P. aeruginosa strains from cystic fibrosis patients; assay: Macrobroth dilution MICs, CF strains; assay type: cell-based; details: 2 P. aeruginosa strains from cystic fibrosis patients
Experimental: as §3, §4

MRSA SA 2230, SA 2232 = assay: Time-kill macrobroth MICs; assay type: cell-based, S. aureus
Experimental: as §4
Two of the MRSA strains were chosen and tested for synergy, together with the 4 Gram-negative strains mentioned above. Broth macrodilution formed the basis of MICs used in time-kill experiments, as detailed below. The kill kinetics of each drug was tested alone by incubating an initial inoculum of 5×10^5 to 5×10^6 cfu/mL with drug concentrations at the MIC, three dilutions above and three dilutions below the MIC (½, ¼ and ⅛×MIC). Viability counts were performed after 0, 3, 6, 12 and 24 h incubation at 37° C. in a shaking water bath by plating onto trypticase soy-5% sheep blood agar plates.

[8] = Intrapulmonary penetration into ELF and AM, Phase 1 clinical study; assay type: in vivo, healthy adult subjects; details: 400 mg orally daily for 5 days, Day 5, 24 hour period
Experimental: CEM-101 is evaluated for the treatment of patients with community-acquired bacterial pneumonia. The penetration of CEM-101 into the epithelial lining fluid (ELF) and alveolar macrophages (AM) is assessed in a Phase 1 clinical study.
30 subjects received 400 mg of CEM-101 orally daily for 5 days. On Day 5, each subject underwent a single bronchoscopy and bronchoalveolar lavage at 1 of 5 time points (3, 6, 9, 12 or 24 h post-dose) to obtain ELF and AM samples (6 subjects/time point). Plasma samples were collected pre-dose on Days 1 to 5 and serially post-dose on Day 5 and 6. The samples collected were assayed for CEM-101 using LC/MS/MS. Urea in the plasma and ELF was used to correct the ELF CEM-101 concentrations. Noncompartmental pharmacokinetic (PK) analysis using the median concentrations at each time point was used to calculate Day 5 AUC0-24. In addition, a population PK model (PPM) was used to determine Day 5 AUC0-24 for each subject in plasma and ELF. Intrapulmonary penetration of CEM-101 into the ELF and AM was determined by dividing the Day 5 AUC0-24 of each matrix by the Day 5 plasma AUC0-24.

Protein binding = assay type: in vitro ADME; details: mice
Excerpt: as §2

CC[C@H]1OC(=O)[C@@](C)(F)C(=O)[C@H](C)[C@@H](O[C@@H]2O[C@H](C)C[C@H](N(C)C)[C@H]2O)[C@](C)(OC)C[C@@H](C)C(=O)[C@H](C)[C@H]2N(CCCCn3cc(-c4cccc(N)c4)nn3)C(=O)O[C@]12C [CEM-101, solithromycin]
tissues with highest concentrations [1]: highest in liver, spleen, lung, and salivary gland | ELF AUC0-24:MIC ratio associated with 1-log 10 CFU reduction from baseline (S. pneumoniae): 15.1 | ELF AUC0-24:MIC ratio associated with 2-log 10 CFU reduction from baseline (S. pneumoniae): 59.8 | ELF AUC0-24:MIC ratio associated with net bacterial stasis (S. pneumoniae): 1.26 | f plasma AUC0-24:MIC ratio associated with 1-log 10 CFU reduction from baseline (S. pneumoniae): 6.31 | f plasma AUC0-24:MIC ratio associated with 2-log 10 CFU reduction from baseline (S. pneumoniae): 12.8 | f plasma AUC0-24:MIC ratio associated with net bacterial stasis (S. pneumoniae): 1.65 | lung/plasma ratio ([2]; females): 6.2 | lung/plasma ratio ([2]; males): 17.6 | heart concentration relative to plasma (Tissue distribution [3]; monkey): 54 fold | liver concentration relative to plasma (Tissue distribution [3]; monkeys, 200 mg/kg/d): 711 fold | lung concentration relative to plasma (Tissue distribution [3]; monkeys, 200 mg/kg/d): 503 fold | ELF to total-drug plasma AUC0-24 ratio [4]: 0.22 | ELF to free-drug (f) plasma AUC0-24 ratio ([4]; based on protein binding of 91.8%): 2.7 | heart concentration relative to plasma (Tissue distribution [5]): 5 fold | mean liver concentration relative to plasma (Tissue distribution [5]; 250 mg/kg/d): 15 fold | mean lung concentration relative to plasma (Tissue distribution [5]; 250 mg/kg/d): 17 fold | MIC Range [6]: 8 to 32 µg/mL | MIC Range [7]: 64 µg/mL | Time-kill Macrobroth MIC (MRSA SA 2230, SA 2232; strain SA 2230): 0.125 µg/mL | Time-kill Macrobroth MIC (MRSA SA 2230, SA 2232; strain SA 2232): 0.125 µg/mL | exposure in AM compared to plasma [8]: > 180 times | exposure in ELF compared to plasma [8]: > 8 times | protein binding (Protein binding): 91.8%
